Tests used:
Assay type in all cases: cell-based
Tel-Jak3 = molecular target: T1, Tel-Jak3 (Homo sapiens, UniProt P52333); experiment: Cellular growth inhibition assay (MTT), Tel-Jak3 transformed BaF3 cell line; details: 40 hr incubation, read-out: Jak3: growth inhibitory activity (>50%) in transformed cell line Tel-Jak3
T1 construct: TEL (ETV6, human P41212) N-terminal part encoded by nucleotides 1-487 of TEL; expressed in transfected cells; host or cells: BaF3 (murine) bearing pTET-off, transfected with pTELJAK3 (pTRE2 vector); the other entry of the earlier key: ETV6 (P41212, Transcription factor ETV6)
Source text: (§1) The coding region encompassing nucleotides 1–487 of TELwas amplified by PCR using the oligonucleotides 5TEL (5′-GGAGGATCCTGATCTCTCTCGCTGTGAGAC-3′) and 3TEL (5′-AGGC GTCGACTTCTTCTTCATGGTTCTG-3′) and U937 mRNA as template. A BamHI site was present into the 5TEL Primer, a SalI site was incorporated into the 3TEL primer. The regions encompassing the kinase domains of JAK2 (nucleotides 2994–3914; JAK2F 5′-ACGC GTCGACGGTGCCTTTGAAGACCGGGAT-3′; JAK2R 5′-ATAGTTTAGCGGCCGCTCAGAATGAAGGTCATTT-3′) and JAK3 (nucleotides 2520–3469; JAK3F 5′-GAAGTCGACTATGCCTGCCAAGACCCCACGATCTT-3′; JAK3R 5′-GGATCTAGACTATGAAAAGGACAGGGAGTGGTGTTT-3′) were generated by PCR using Taq DNA Polymerase (Gibco/BRL) and U937 mRNA as template. A SalI site was incorporated into the forward primer of JAK2 and JAK3, a NotI site was incorporated into the JAK2 reverse primer and a Xba I site was added to the reverse primer of JAK3.
(§2) A TEL/Jak2 fusion was generated by digestion of the TELPCR product with BamHI/SalI, digestion of the JAK2 PCR product with SalI/NotI followed by ligation and subcloning into the mammalian expression Vector pTRE 2 (Clontech) digested with BamHI-NotI (pTELJAK2). For JAK3 SalI/NotI cleaved kinase domain PCR product was ligated with BamHI/SalI cleaved TELproduct followed by ligation into BamHI/NotI cleaved pTRE2 (pTELJAK3).
(§3) The growth factor dependent myelomonocytic cell line BaF3 bearing the pTET-off plasmid (Clontech) was transfected with either pTELJAK2 or pTELJAK3 and the cells selected for factor independent growth. BaF 3 wild type cells were cultured in DMEM 10% FCS, 10% WEHI 3B conditioned medium. BaF3 TELJAK cells were cultured in DMEM 10% Tet-System Approved FBS (without WEHI 3B conditioned medium).
(§4) Cell suspensions were prepared by harvesting cells from culture. (Cells used in this test should be in later log phase growth and high viability.) Cells were diluted in correct growth medium to 1.1×final concentration (from 50000 cell/mL to 200,000 cell/mL, depending on cell line).
(§5) Compounds to be tested were added (10 μL, 10×final concentration) to a flat bottom 96-well plate. The cellular suspension (90 μL per well) was added, and the plate incubated for 40 hr at 37° C., 5% CO2. MTT (20 μL per well, 5 mg/mL in PBS) was added and the plates were returned to the incubator for a further 6 hours. Lysis buffer (100 μL per well, 10% SDS, 0.01N HCl) was added and the plate stored in the incubator overnight. The plate was then read at 590 nm.

DU145 = experiment: Cellular growth inhibition assay (MTT), DU145 cells; details: Homo sapiens, DU-145, 40 hr incubation, read-out: DU145: growth inhibitory activity
Procedure: as §4, §5

Tel-Jak2 = molecular target: T2, Tel-Jak2 (Homo sapiens, UniProt O60674); experiment: Cellular growth inhibition assay (MTT), Tel-Jak2 transformed BaF3 cell line; details: 40 hr incubation, read-out: Jak2: growth inhibitory activity (>50%) in transformed cell line Tel-Jak2
T2 construct: The regions encompassing the kinase domains of JAK2 (nucleotides 2994–3914); TEL (ETV6, human P41212) N-terminal part encoded by nucleotides 1-487 of TEL; expressed in transfected cells; host or cells: BaF3 (murine) bearing pTET-off, transfected with pTELJAK2 (pTRE2 vector); the other entry of the earlier key: ETV6 (P41212, Transcription factor ETV6)
Source text: as §1, §2, §3, §4, §5

T1 sequence (P52333 with tags, fused parts or gaps): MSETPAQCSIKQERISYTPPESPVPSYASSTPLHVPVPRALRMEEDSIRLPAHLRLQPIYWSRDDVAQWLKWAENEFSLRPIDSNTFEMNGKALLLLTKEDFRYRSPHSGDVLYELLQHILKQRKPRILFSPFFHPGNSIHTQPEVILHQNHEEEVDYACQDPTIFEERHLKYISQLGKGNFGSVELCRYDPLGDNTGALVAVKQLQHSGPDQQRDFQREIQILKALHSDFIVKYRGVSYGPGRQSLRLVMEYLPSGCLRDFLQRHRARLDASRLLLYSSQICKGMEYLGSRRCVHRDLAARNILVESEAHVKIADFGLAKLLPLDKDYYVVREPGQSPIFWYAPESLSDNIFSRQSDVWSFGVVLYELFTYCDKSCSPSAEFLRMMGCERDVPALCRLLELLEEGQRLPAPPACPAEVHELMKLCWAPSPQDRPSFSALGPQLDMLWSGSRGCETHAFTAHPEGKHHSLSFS
T2 sequence (O60674 with tags, fused parts or gaps): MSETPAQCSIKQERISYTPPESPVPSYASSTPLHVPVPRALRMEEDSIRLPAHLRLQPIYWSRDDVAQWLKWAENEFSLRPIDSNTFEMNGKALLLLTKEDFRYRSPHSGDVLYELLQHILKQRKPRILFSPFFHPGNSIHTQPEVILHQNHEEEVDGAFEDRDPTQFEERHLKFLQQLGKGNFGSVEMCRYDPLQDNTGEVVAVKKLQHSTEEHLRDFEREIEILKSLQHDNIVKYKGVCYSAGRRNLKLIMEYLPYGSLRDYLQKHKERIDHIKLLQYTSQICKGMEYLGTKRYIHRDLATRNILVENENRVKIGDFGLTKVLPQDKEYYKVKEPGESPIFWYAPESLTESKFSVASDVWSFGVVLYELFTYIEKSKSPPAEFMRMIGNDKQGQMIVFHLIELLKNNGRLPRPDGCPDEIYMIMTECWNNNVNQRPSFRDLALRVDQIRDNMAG

Structure (SMILES)	inhibition at 50 µM (Tel-Jak3)	inhibition at 50 µM (DU145)	inhibition at 50 µM (Tel-Jak2)
COc1cc(-c2cncc(NC(C)c3ccc(N)cc3)n2)ccc1O (stereo not drawn) [Chemistry 319]	> 50%	< 50%	> 50%
COc1cc(-c2cncc(NC(C)c3ccc(C(N)=O)cc3)n2)ccc1O (stereo not drawn) [Chemistry 304]	> 50%	< 50%	> 50%
COc1cc(-c2cncc(NC(C)c3cccc(NC(=O)N4CCN(C)CC4)c3)n2)ccc1O (stereo not drawn) [Chemistry 241]	> 50%	< 50%	> 50%
COc1cc(-c2cncc(NC(C)c3ccncc3)n2)ccc1O (stereo not drawn) [Chemistry 200]	> 50%	< 50%	> 50%
COc1cc(-c2cncc(NC(C)c3cccc(NC(=O)c4ccncc4)c3)n2)ccc1O (stereo not drawn) [Chemistry 269]	> 50%	> 50%	> 50%
COc1cc(-c2cncc(Nc3ccc(F)cc3C)n2)ccc1O [Chemistry 156]	> 50%	< 50%	> 50%
COc1cc(-c2cncc(Nc3cc(Cl)ccc3C)n2)ccc1O [Chemistry 130]	< 50%	> 50%	> 50%
COc1cc(-c2cncc(NC(C)c3cccc(NC(C)=O)c3)n2)ccc1O (stereo not drawn) [Chemistry 276]	> 50%	< 50%	> 50%
COc1cc(-c2cncc(NC(C)c3ccc(NC(=O)c4cccnc4)cc3)n2)ccc1O (stereo not drawn) [Chemistry 280]	> 50%	< 50%	> 50%
COc1cc(-c2cncc(N[C@@H](C)c3ccccc3)n2)ccc1O [Chemistry 118]	> 50%	> 50%	> 50%

Source: patent US7122550B2, “Protein kinase inhibitors” (Cytopia Pty Ltd, priority 2002, dated 2006)
